# Assay results reported in patent US11261183B2, “Sulfoximine glycosidase inhibitors” (Asceneuron SA, priority 2016, dated 2022).
# Tests used:
# [1] = Protein binding in mice plasma using Rapid Equilibrium Dialysis; type: in vitro ADME, CD1 mice; settings: 37° C.; for fraction unbound at 5 h, 1 µM: male, CD1, mouse, plasma, pH 7.4, CD1 mouse plasma
# Procedure: Example B04: Protein binding in mice plasma using Rapid Equilibrium Dialysis
# • CD1 Mice Plasma: pooled male, K2-EDTA ([…]2, Bioreclammation, USA • Phosphate Buffered Saline (1×PBS), pH 7.4, 100 mM (Sigma, Cat No. P4417) • RED inserts (Pierce, Cat No. 9006, 8 kDa MWCO) • Sample Analysis: LC-MS/MS Methods • Preparation of DMSO Stock Solution
# From 20 mM DMSO stock solutions of reference and test compounds, 1 mM DMSO intermediate working solutions are prepared. From 1 mM intermediate working solutions, 100 μM DMSO working solutions are prepared. • Sample Preparation Procedure:
# Selected plasma is brought from −20° C. to 37° C. using water bath before its use. Test solution is prepared by adding the DMSO working solution of the reference or test compound (2 μL; 100 μM) to the selected plasma (198 μL). Spiked plasma (200 μl) is transferred to sample compartment of RED insert placed in the teflon plate. 350 μl of 1×PBS is added in the buffer compartment of RED insert. The teflon plate is covered with sealing mat and agitated at 37° C. for 5 hours at 500 RPM in a Thermomixer. After incubation time, an aliquot of plasma (50 μl) from sample compartment is mixed with blank 1×PBS (50 μl). Similarly, an aliquot of buffer (50 μl) from buffer compartment is mixed with blank plasma (50 μl). Quenching solution (200 μL, acetonitrile containing internal standard tolbutamide (0.5 μg/mL)) is added and the resulting solutions are mixed using a vortex mixer and centrifuged (Eppendorf 5415, 13792 g). Supernatants are analyzed using a Mass Spectrometer. The sample (supernatant fraction, 5 μL) is injected into the LC-MS/MS instrument. • Chromatographic Conditions: LC-MS/MS: API 4000 LC-MS/MS Software: Analyst Version 1.6.1 Column Phenomenex Synergy 30*4.6*5μ Column Oven: 40° C. Mode: ESI Positive Injection volume: 5 μl Flow Rate: […] Buffer: 0.1% Formic acid in Water Method: Isocratic Method/Gradient Composition: A) 0.1% Formic acid in Water B) 0.1% Formic acid in Methanol
# After the concentration of free drug and total drug has been determined by LCMS/MS, percent plasma protein binding can be calculated as follows:
# [formula] Following this protocol, % fraction unbound in plasma from different species can be also measured.
# [2] = target: Human O-GlcNAcase (His-Tagged hOGA) (Homo sapiens (Human), UniProt O60502); assay: Human O-GlcNAcase enzyme inhibition assay; type: biochemical; settings: His-Tagged hOGA 20 nM, FL-GlcNAc 10 μM, 60 min, room temperature, pH 6.5; read-out: Enzymatic OGA IC50
# Human O-GlcNAcase (His-Tagged hOGA), sequence (O60502 whole entry): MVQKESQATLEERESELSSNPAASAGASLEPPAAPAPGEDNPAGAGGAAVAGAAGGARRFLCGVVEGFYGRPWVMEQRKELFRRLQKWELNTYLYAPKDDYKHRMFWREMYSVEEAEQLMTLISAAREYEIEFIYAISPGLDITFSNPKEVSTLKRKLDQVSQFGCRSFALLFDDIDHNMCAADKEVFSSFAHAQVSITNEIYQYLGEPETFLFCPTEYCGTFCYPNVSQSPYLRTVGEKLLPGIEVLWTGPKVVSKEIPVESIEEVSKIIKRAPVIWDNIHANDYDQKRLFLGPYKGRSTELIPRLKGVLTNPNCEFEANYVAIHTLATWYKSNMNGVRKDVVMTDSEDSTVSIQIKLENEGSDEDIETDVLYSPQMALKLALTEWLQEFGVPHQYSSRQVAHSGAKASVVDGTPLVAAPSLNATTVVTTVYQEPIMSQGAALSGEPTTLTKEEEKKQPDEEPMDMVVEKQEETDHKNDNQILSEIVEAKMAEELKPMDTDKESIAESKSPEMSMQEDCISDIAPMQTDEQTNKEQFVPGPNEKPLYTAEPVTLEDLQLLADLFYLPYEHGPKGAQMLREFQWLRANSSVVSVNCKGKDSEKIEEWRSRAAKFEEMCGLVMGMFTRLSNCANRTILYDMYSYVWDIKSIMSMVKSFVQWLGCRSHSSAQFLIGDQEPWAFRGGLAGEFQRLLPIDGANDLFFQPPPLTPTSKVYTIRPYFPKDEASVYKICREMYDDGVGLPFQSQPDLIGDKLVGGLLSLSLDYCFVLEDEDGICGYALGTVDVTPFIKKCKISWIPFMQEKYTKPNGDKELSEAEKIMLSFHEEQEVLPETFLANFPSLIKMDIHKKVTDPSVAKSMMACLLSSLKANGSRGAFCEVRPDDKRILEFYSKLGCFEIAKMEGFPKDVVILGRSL
# Procedure: Example B01: Human O-GlcNAcase enzyme inhibition assay
# 5 μl of the appropriate concentration of a solution of inhibitor in McIlvaine's Buffer (pH 6.5) in 2% DMSO (for a dose response curve calculation) is added into each well of a 384-well plate (Greiner, 781900). Then, 20 nM of His-Tagged hOGA and 10 μM of FL-GlcNAc (Fluorescein mono-beta-D-(2-deoxy-2-N-acetyl) glucopyranoside; Marker Gene Technologies Inc, M1485) were added to the 384-well plate for a final volume of 20 μl. After incubation for 60 min at room temperature, the reaction was terminated by the addition of 10 μL of stop buffer (200 mM glycine, pH 10.75).
"fraction unbound at 5 h, 1 µM [1]",IC50 [2],"% fraction unbound in mouse plasma ([1]; CD1 mouse plasma, 5 hours)",SMILES
0.223,< 50 nM,,"CN=S(C)(=O)c1ccc(N2CCN(C(C)c3ccc4c(c3)OCC4)CC2)nc1 (single isomer, unassigned) [Example 20, (6-(4-((S)-1-(2,3-dihydrobenzofuran-6-yl)ethyl)piperazin-1-yl)pyridin-3-yl)(methyl)(methylimino)-λ^6-sulfanone or (6-(4-((R)-1-(2,3-dihydrobenzofuran-6-yl)ethyl)piperazin-1-yl)pyridin-3-yl)(methyl)(methylimino)-λ^6-sulfanone]"
0.139,< 50 nM,,"CC(c1ccc2c(c1)OCC2)N1CCN(c2ncc(C(=O)N=S(C)(C)=O)cn2)CC1 (racemic) [Example 10, 2-(4-(1-(2,3-dihydrobenzofuran-6-yl)ethyl)piperazin-1-yl)-N-(dimethyl(oxo)-λ^6-sulfanylidene)pyrimidine-5-carboxamide]"
0.294,< 50 nM,,"CC(c1ccc2c(c1)OCC2)N1CCN(c2ccc(S(C)(=N)=O)cn2)CC1 (racemic) [Example 7, (6-(4-(1-(2,3-dihydrobenzofuran-6-yl)ethyl)piperazin-1-yl)pyridin-3-yl)(imino)(methyl)-Δ^6-sulfanone]"
0.248,< 50 nM,,"CC(c1ccc2scnc2c1)N1CCN(c2ncc(S(C)(=N)=O)cn2)CC1 (racemic) [Example 22, (2-(4-(1-(benzo[d]thiazol-5-yl)ethyl)piperazin-1-yl)pyrimidin-5-yl)(imino)(methyl)-λ^6-sulfanone]"
0.115,< 50 nM,,"Cc1nc2cc(C(C)N3CCN(c4ccc(S(C)(=N)=O)cn4)CC3)ccc2s1 (racemic) [Example 46, imino(methyl)(6-(4-(1-(2-methylbenzo[d]thiazol-5-yl)ethyl)piperazin-1-yl)pyridin-3-yl)-λ^6-sulfanone]"
0.234,< 50 nM,,"CN=S(C)(=O)c1cnc(N2CCN(C(C)c3ccc4c(c3)OCC4)CC2)nc1 (racemic) [Example 8, (2-(4-(1-(2,3-dihydrobenzofuran-6-yl)ethyl)piperazin-1-yl)pyrimidin-5-yl)(methyl)(methylimino)-λ^6-sulfanone]"
,< 50 nM,35.63%,"CC(c1ccc2c(c1)OCC2)N1CCN(c2ncc(S(C)(=N)=O)cn2)CC1 (single isomer, unassigned) [Example 14]"
